Assay [1] relates to castor oil-induced diarrhea in albino rats. The assay can be described thus: Castor oil-induced diarrhea (weight of faeces, rate of defecation). The format is in vivo, Swiss albino rats. The note with it: STD group, 10 mg/kg i.p. Here is the method:
The anti-diarrheal activity of the hazardless and stable aqua-regia in terms of reduction of rate of defecation and consistency of faeces was tested on albino rats. In an embodiment, Swiss albino rats weighing 150-180 g of either sex were selected for the experiment. Animals were allowed to acclimatize for a period of 2 weeks in laboratory environment by housing them in a plurality of polypropylene cages. The polypropylene cages were maintained under standard laboratory conditions at an ambient temperature of 25° C. with 35%-60% humidity. Animals were fed with standard rat pellet diet.
Loperamide (standard reference anti-diarrheal drug), castor oil (laxative agent), and normal saline solution (0.9% NaCl) were used. […]
Animals of all the groups were placed separately in individual cages lined with filter paper. The filter paper was changed every 1 hour and the severity of diarrhea was assessed hourly for two hours. The total weight of faeces excreted were recorded within a period of two hours and compared with that of the control group. […]
(§1) Data were analyzed by one-way ANOVA followed by Dunnett's t-test using computerized Graph Pad InStat version 3.05.

The test system of assay [2] is intestinal transit of charcoal meal in albino rats. The assay can be described thus: Gastrointestinal motility test (charcoal meal transit). As to conditions: charcoal meal one hour after dosing, sacrificed thirty minutes later; aqua-regia 0.03 ml, atropine sulphate 0.1 mg/kg; control group 84.46%. The format is in vivo, Swiss albino rats. The protocol: The use of the hazardless and stable aqua-regia in rehydrating body cells was tested on albino rats. In an embodiment, Swiss albino rats weighing 150-180 g of either sex were selected for the experiment. Animals were allowed to acclimatize for a period of 2 weeks in laboratory environment by housing them in a plurality of polypropylene cages. The polypropylene cages were maintained under standard laboratory conditions at an ambient temperature of 25° C. with 35%-60% humidity. Animals were fed with standard rat pellet diet.
Atropine sulphate (standard reference anti-diarrheal drug), charcoal meal (10% activated charcoal in 5% gum acacia) and vehicle (2% v/v Tween 80 in distilled water) were used. […]
The gastrointestinal motility test was conducted to illustrate use of aqua-regia in rehydrating body cells, according to an embodiment herein. […] The distance travelled by the charcoal meal was calculated. The distance covered by the charcoal meal in the intestine was expressed as a percentage of the total distance travelled from the pylorus to the caecum of each animal.
as §1

These results are taken from patent publication US20120128795A1, “COLORLESS, NON-FUMING, HAZARDLESS AND STABLE AQUA-REGIA, ITS PREPARATION METHOD AND USE IN TREATING MEDICAL DISORDERS” (priority 2010, published 2012).

On to `CN(C)C(=O)C(CCN1CCC(O)(c2ccc(Cl)cc2)CC1)(c1ccccc1)c1ccccc1` [loperamide, Loperamide], for which the diarrheal symptoms entry in assay [1] is listed as “does not possess any diarrheal symptoms”.

Regarding `CN1[C@@H]2CC[C@H]1CC(OC(=O)C(CO)c1ccccc1)C2.CN1[C@@H]2CC[C@H]1CC(OC(=O)C(CO)c1ccccc1)C2.O=S(=O)(O)O` (some centres unmarked) [standard drug, Atropine sulphate], the “percentage transit (distance covered by charcoal meal as percentage of distance from pylorus to caecum)” value in assay [2] amounted to 55.57%.
